Measurements: US20110269755A1, “COMPOSITIONS AND METHODS FOR TREATING VASCULAR, AUTOIMMUNE, AND INFLAMMATORY DISEASES” (Aspreva International Ltd., priority 2006, published 2011)
In brackets after ≈: the same amount, converted by molar mass. Entries after “also recorded” stand apart in the source; their conditions may differ.

Assays:
allograft survival = conditions: mice; cited from earlier work
Ldlr−/− mice [1] = experiment: Serum/plasma lipid levels in Ldlr−/− mice on Western-type diet, MMF alone; assay type: in vivo
Excerpt: (§1) Additional secondary endpoints examined were plasma levels of cholesterol, HDL cholesterol, triglycerides, and phospholipids.

[2] = cited from earlier work
Ldlr−/− mice [3] = experiment: Atherosclerosis in Ldlr−/− mice on Western-type diet, plaque area at the aortic root, MMF alone; assay type: in vivo; conditions: for reduction of atherosclerosis (AS), percentage of aortic sinus occluded by plaque: 12 weeks
Excerpt: as §1

[4] = following oral or intravenous administration; cited from earlier work
[5] = test system: antibody response to sheep red blood cells; conditions: mice; cited from earlier work
[6] = test system: endothelial nitric oxide synthase (eNOS); conditions: in vitro, cited from earlier work

SMILES: COc1c(C)c2c(c(O)c1C/C=C(\C)CCC(=O)OCCN1CCOCC1)C(=O)OC2 [MMF, morpholinoethyl E-6-(1,3-dihydro-4-hydroxy-6-methoxy-7-methyl-3-oxo-5-isobenzofuranyl)-4-methyl-4-hexenoate]
- effective dose for in vivo prolongation of allograft survival (allograft survival): about 80 mg/kg/day
- HDL cholesterol levels (Ldlr−/− mice [1]; Ldlr−/− mice): no effect
- total cholesterol levels (Ldlr−/− mice [1]; Ldlr−/− mice): no effect
- serum cholesterol levels (Ldlr−/− mice [1]; male Ldlr−/− mice): did not lower
- serum phospholipid levels (Ldlr−/− mice [1]; male Ldlr−/− mice): lower; also recorded: decreases
- serum triglyceride levels (Ldlr−/− mice [1]; male Ldlr−/− mice): lower; also recorded: decreases
- solubility ([2]; in 5% dextrose solution): 65.8 mg/mL (≈ 152 mM)
- solubility in water ([2]; water): insoluble
- reduction of atherosclerosis (AS), percentage of aortic sinus occluded by plaque (Ldlr−/− mice [3]; MMF 6 mg/kg/day in diet, male Ldlr−/− mice): 18%
- reduction of atherosclerosis (AS), percentage of aortic sinus occluded by plaque (Ldlr−/− mice [3]; MMF 15 mg/kg/day in diet, male Ldlr−/− mice): 30%
- reduction of atherosclerosis (AS), percentage of aortic sinus occluded by plaque (Ldlr−/− mice [3]; MMF 30 mg/kg/day in diet, male Ldlr−/− mice): 28%
- reduction of atherosclerosis (AS), percentage of aortic sinus occluded by plaque (Ldlr−/− mice [3]; MMF 100 mg/kg/day in diet, male Ldlr−/− mice): 64%
- dose response of the reduction of atherosclerosis (Ldlr−/− mice [3]; MMF 6, 15, 30 and 100 mg/kg/day, male Ldlr−/− mice): dose-dependent
- effect on atherosclerosis / atheromatous plaques (Ldlr−/− mice [3]; MMF alone, doses lower than used for preventing organ rejection, Ldlr−/− mice): reduce atherosclerosis; also recorded: reduction of atheromatous plaques
- metabolism to the active metabolite MPA [4]: rapidly and completely metabolized

SMILES: COc1c(C)c2c(c(O)c1C/C=C(\C)CCC(=O)O)C(=O)OC2 [MPA, mycophenolic acid]
- ED50 for inhibiting the antibody reaction [5]: about 33 mg/kg/day
- trend in aortic root lesions as a function of serum MPA levels (linear regression) (Ldlr−/− mice [3]; Ldlr−/− mice given MMF): statistically significant decreasing trend

SMILES: CC[C@H](C)C(=O)O[C@H]1C[C@@H](C)C=C2C=C[C@H](C)[C@H](CC[C@@H]3C[C@@H](O)CC(=O)O3)[C@H]21 [lovastatin]
- upregulation of eNOS expression ([6]; cholesterol clamped conditions): almost fourfold
- downregulation of eNOS by oxidized LDL [6]: completely prevent
